ChEMBL document CHEMBL1133379, “Bioisosteric modification of PETT-HIV-1 RT-inhibitors: synthesis and biological evaluation” (Bioorg Med Chem Lett, 2000)

Tests used:
[1] = tested on: Human immunodeficiency virus 1; test: Antiviral activity against HIV-1 virus.; assay type: functional; conditions: read-out: ED50 (the source's name)
[2] = target: Human immunodeficiency virus type 1 reverse transcriptase (Human immunodeficiency virus 1, UniProt Q72547); test: Inhibition of wild-type HIV-1 Reverse transcriptase.

| Compound | EC50 [1] [nM] | IC50 [2] [nM] |
| --- | --- | --- |
| COc1ccccc1CCNC(=S)Nc1nccs1 | 400 | – |
| COc1cccc(C(=O)CC/N=C(\S)Nc2ccc(Br)cn2)c1 | 911 | 80 |
| O=C(CCNC(=S)Nc1ccc(Br)cn1)c1ccccc1 | 36 | < 27 |
| COc1ccccc1C(=O)CCNC(=S)Nc1ccc(Br)cn1 | 76 | 3 |
| CCOc1ccc(F)c(CCNC(=O)Nc2ccc(Br)cn2)c1Cl | 50 | – |
| O=S(=O)(NCCc1ccccc1)Nc1cncc(Cl)c1 | > 100000 | > 10000 |
| N=C(Nc1ccc(Br)cn1)N[C@@H]1C[C@@H]1c1ccccc1 | 1200 | 180 |
| O=C(CCNC(=S)Nc1ccc(Br)cn1)c1ccccc1Cl | 100 | 10 |
| Fc1cccc(F)c1CC/N=C(\S)Nc1ccc(Br)cn1 | 10 | – |
| O=C(CC/N=C(\S)Nc1ccc(Cl)cn1)c1c(F)cccc1F | 28 | 6 |
| S=C(Nc1ccc(Br)cn1)N[C@@H]1C[C@@H]1c1ccccc1 | 20 | 8 |
| S=C(NCCc1ccccc1)Nc1ccc(Cl)cn1 | 30 | 3 |
| O=C(NCCC(=O)c1ccccc1F)Nc1ccc(Br)cn1 | 201 | 54 |
| N#CN/C(=N\c1ccc(Cl)cn1)NCCc1ccccc1 | > 100000 | > 10000 |
| O=C(CC/N=C(\S)Nc1ccc(Br)cn1)c1ccc(F)cc1 | 300 | 47 |
| COc1ccccc1CCN=C(NC#N)Nc1nccs1 | > 100000 | > 10000 |
| O=C(CC/N=C(\S)Nc1ccc(Br)cn1)c1ccccc1F | 9 | 4 |
| O=C(CC/N=C(\S)Nc1ccc(Br)cn1)c1cc(F)ccc1F | 67 | < 25 |
| O=C(CCNC(=S)Nc1ccc(Br)cn1)c1c(F)cccc1F | 50 | 3 |
| CCOc1ccc(F)c(CC/N=C(\N)Nc2ccc(Br)cn2)c1Cl | 1000 | 400 |
| CCOc1ccc(F)c(CCNC(=S)Nc2ccc(Br)cn2)c1Cl [THIOUREA, N-(5-BROMO-2-PYRIDINYL)-N'-(2-(2-CHLORO-3-ETHOXY-6-FLUOROPHENYL)ETHYL)-] | 7 | – |
